pIC50: −log10 of the molar value.
Tests used:
[1] = target: T1, Steroid 5-alpha-reductase (Rattus norvegicus, UniProt P24008+P31214); experiment: Compound was tested for the inhibitory activity against Steroid 5-alpha-reductase in rat
T1 sequence (P24008 whole entry): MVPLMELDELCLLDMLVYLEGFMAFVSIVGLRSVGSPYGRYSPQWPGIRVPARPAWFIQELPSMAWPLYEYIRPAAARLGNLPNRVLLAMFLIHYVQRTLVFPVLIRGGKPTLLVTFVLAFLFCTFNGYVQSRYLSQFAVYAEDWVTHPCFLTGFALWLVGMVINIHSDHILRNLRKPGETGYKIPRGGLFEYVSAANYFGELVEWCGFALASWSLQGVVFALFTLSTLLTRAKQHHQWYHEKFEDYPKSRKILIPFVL
T1 sequence (P31214 whole entry): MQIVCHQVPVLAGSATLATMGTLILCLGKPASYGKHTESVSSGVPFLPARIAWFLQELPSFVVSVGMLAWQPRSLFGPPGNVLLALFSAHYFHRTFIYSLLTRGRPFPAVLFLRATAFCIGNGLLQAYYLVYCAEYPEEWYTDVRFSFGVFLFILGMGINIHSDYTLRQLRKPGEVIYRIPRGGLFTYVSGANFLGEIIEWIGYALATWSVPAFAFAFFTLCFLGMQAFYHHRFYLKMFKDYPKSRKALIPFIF

[2] = target: T2, 3-oxo-5-alpha-steroid 4-dehydrogenase 1 (Rattus norvegicus, UniProt P24008); experiment: Compound was tested for the inhibitory activity against Steroid 5-alpha-reductase type 1 in rat
T2 sequence (P24008 whole entry): T1 sequence (P24008 whole entry)

SMILES	IC50 [1]	pIC50 [2]
CCCCCCCCNC(=O)[C@H]1CCC2C3CCC4NC(=O)CC[C@]4(C)C3CC[C@@]21C (some centres undefined)	0.13 nM	–
CC(C)(C)NC(=O)[C@H]1CC[C@H]2[C@@H]3CC[C@H]4NC(=O)C=C[C@]4(C)[C@H]3CC[C@]12C [FINASTERIDE]	–	8.38
C[C@]12CCC(=O)C=C1CC[C@@H]1[C@@H]2CC[C@]2(C)C(c3cccnc3)=CC[C@@H]12	10000 nM	–
CC(C)(C)NC(=O)[C@H]1CCC2C3CCC4NC(=O)CC[C@]4(C)C3CC[C@@]21C (some centres undefined)	6.3 nM	–

Reference: ChEMBL document CHEMBL1130754, “Structure activity relationship study of known inhibitors of the enzyme 5 alpha-reductase (5AR)” (Bioorg Med Chem Lett, 1998)
